This test addresses T1, human recombinant COX2 (hCOX2) (UniProt P35354).
T1 sequence (P35354 1-604): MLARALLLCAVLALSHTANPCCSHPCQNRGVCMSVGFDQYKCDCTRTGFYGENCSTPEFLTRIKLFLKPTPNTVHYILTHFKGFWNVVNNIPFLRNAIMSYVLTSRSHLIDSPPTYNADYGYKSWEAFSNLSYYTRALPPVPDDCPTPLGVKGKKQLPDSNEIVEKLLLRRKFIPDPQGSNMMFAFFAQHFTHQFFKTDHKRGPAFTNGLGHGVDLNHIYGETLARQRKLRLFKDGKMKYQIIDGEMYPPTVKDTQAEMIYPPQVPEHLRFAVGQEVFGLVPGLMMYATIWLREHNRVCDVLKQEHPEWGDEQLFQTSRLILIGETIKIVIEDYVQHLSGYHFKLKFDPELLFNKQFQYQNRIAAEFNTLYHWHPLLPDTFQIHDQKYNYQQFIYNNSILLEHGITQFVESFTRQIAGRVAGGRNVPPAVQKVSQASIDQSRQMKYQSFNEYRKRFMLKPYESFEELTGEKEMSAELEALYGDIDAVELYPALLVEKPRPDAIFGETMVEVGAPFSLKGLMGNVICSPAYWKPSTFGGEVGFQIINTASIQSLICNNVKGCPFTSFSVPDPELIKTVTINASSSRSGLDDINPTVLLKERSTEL
Briefly: LCMS-based COX2 enzymatic inhibition assay (PGE2 quantification). Also on record: COX2 2 minutes pge2/pge2d4 area ratio Avg; other: 2 minutes; readout pge2/pge2d4 area ratio; average; COX2 2 minutes pge2/pge2d4 area ratio Avg; LLE; average LLE; COX2 2 minutes pge2 area (counts) Avg; readout pge2 area (counts); other: 2 min; "ovine COX2 (oCOX2), human recombinant COX2 (hCOX2)". The conditions noted are these: for pIC50: average; for COX2 2 minutes pge2/pge2d4 area ratio Avg. LLE / COX2 2 minutes pge2 area (counts) Avg. LLE / COX2 10 minutes pge2 area (counts) Avg. LLE: average LLE. It counts as biochemical. On the procedure: We have adapted a previously reported cyclooxygenase enzymatic assay utilizing LCMS quantification of PGE2 as the product of COX-1 and COX2 catalyzed conversion of arachidonic acid to evaluate the binding properties of newly synthesized ligands [Cao, 2011]. These optimized and miniaturized (384-well plates) LCMS-based COX-1 and COX2 enzymatic assays enabled us to quickly evaluate newly synthesized ligands for COX2 binding affinity and selectivity vs COX-1. Using a shorter ligand-enzyme incubation time in the LCMS assay (2 minutes vs 10 minutes) also permitted us to prioritize ligands with faster binding kinetics. Considering the relatively slow on-rate kinetics of known coxibs, due to their 3-step binding mechanism [Marnett, 2009], we believe that optimizing this critical parameter will be key to the successful development of a COX2 PET tracer. Using these enzymatic assays, we have evaluated>200 newly synthesized ligands against COX2 and >20 ligands against COX-1. Another critical property necessary for a good PET radiotracer is to have low non-specific binding (NSB) to increase the free fraction and maximize the signal to noise ratio. This property can be evaluated using in-vitro protein binding assays, and we have now evaluated>50 newly synthesized ligands in mouse, rat and human plasma protein binding (PPB) assays as well as >15 ligands in a mouse brain protein binding (BPB) assay.
Ovine COX-1 (oCOX-1), ovine COX2 (oCOX2), human recombinant COX2 (hCOX2), arachidonic acid, PGE2, d4-PGD2, and […] (labeled with deuterium atoms at positions 3 and 4) were purchased from Cayman Chemicals (Ann Arbor, Mich.). The cofactors (−)epinephrine and hematin, and the COX inhibitors indomethacin, resveratrol and diclofenac were purchased from Sigma-Aldrich (St. Louis, Mo.). Celecoxib was purchased from 3B PharmaChem International (Wuhan, China). All organic solvents were HPLC grade or better and were purchased from Thermo Fisher (Hanover Park, Ill.). Formic acid was purchased from EMD Chemicals (San Diego, Calif.). Purified water was prepared by using a Millipore Milli-Q purification system (Millipore, Billerica, Mass.). All other chemicals and solvents were ACS reagent grade, unless stated otherwise.
In an Eppendorf tube, 146 μL of 100 mM Tris.HCl (pH 8.0) buffer, 2 μL of 100 μM hematin (co-factor) and 10 μL of 40 mM L-epinephrine (co-factor) were mixed at room temperature. Next, 20 μL of Tris.HCl (pH 8.0) buffer containing 0.2 μg COX2 or 0.1 μg COX-1 (approximately 1 unit of enzyme; 1 unit COX utilizes 1 nmol 02/mg/min at 37° C.) was added, and the solution was incubated at room temperature for 2 min. A 2 μL aliquot of the COX inhibitor in DMSO was added to the enzyme solution and preincubated at 37° C. for 10 min. Negative controls were identical except that 2 μL aliquots of DMSO without inhibitor were used instead.
Each COX reaction was initiated by adding 20 μL of arachidonic acid in Tris.HCl (pH 8.0) buffer to give a final concentration of 5 μM; and the reaction was terminated after 2 min by adding 20 μL of 2.0 M HCl. The surrogate standards d4-PGE2 and d4-PGD2 (10 μL aliquot of 50 ng/mL solution in methanol) were added to correct for errors or degradation during sample handling and for variation in injection volume or instrument response during LC-MS-MS. After 30 min, PGE2, PGD2 and their surrogate standards were extracted from each incubation mixture using 800 μL hexane/ethyl acetate (50:50, v/v). The organic phase was removed, evaporated to dryness, and reconstituted in 100 μL methanol/water (50:50, v/v) for analysis using LC-MS-MS.
The concentration of PGE2 in each sample was measured using LC-MS-MS, and the percent of COX inhibition by each test solution was determined by comparing the amount of PGE2 produced in the experiment with that produced in the negative control incubation. The formation of PGD2 was measured for quality control purposes, since the levels of PGD2 should be proportional to those of PGE2. […]

The mark [1] stands for this setting: 2 minutes, readout pge2/pge2d4 area ratio, read-out: COX2 2 minutes pge2/pge2d4 area ratio Avg. IC50.
Where [2] appears, read: 2 minutes, readout pge2 area (counts), read-out: COX2 2 minutes pge2 area (counts) Avg. IC50.
Where [3] appears, read: 2 minutes, readout pge2/pge2d4 area ratio.
[4] abbreviates: 2 minutes, readout pge2 area (counts).
Where [5] appears, read: 10 minutes, readout pge2 area (counts).
The mark [6] stands for this setting: 10 minutes, readout pge2 area (counts), read-out: COX2 10 minutes pge2 area (counts) Avg. IC50.
[7] abbreviates: read-out: COX2 2 minutes pge2/pge2d4 area ratio Avg. IC50 (microM), 2 minutes, readout pge2/pge2d4 area ratio.

pIC50: −log10 of the molar value. Where two headings read alike, the source gives them in different places.

The values that follow come from patent US20220348590A1, “CYCLOOXYGENASE-2 INHIBITORS AND USES THEREOF” (The Board Institute, Inc., priority 2019, published 2022).

As to `CS(=O)(=O)c1ccc(-c2coc3ccc(NCc4ccco4)nc23)cc1` [Compound 68], the pIC50 was 7.40 under setting [1] and 7.39 under setting [2].

`CS(=O)(=O)c1ccc(-c2cncc(NCc3ncco3)n2)cc1` [Compound 246]: the “COX2 2 minutes pge2/pge2d4 area ratio Avg. LLE” value under setting [3] was found to be 4.306. Further, the pIC50 is, setting by setting: under setting [1], 5.49; under setting [2], 5.47. The “COX2 2 minutes pge2 area (counts) Avg. LLE” value (from here on “COX2 2 minutes pge2 area”) under setting [4] was 4.2875.

Turning to `CS(=O)(=O)c1ccc(-c2cccc(NCc3ncco3)n2)cc1` [Compound 231], the “COX2 2 minutes pge2/pge2d4 area ratio Avg. LLE” value under setting [3] is 3.1763. Further, the pIC50 was 5.62 under setting [1] and 5.56 under setting [2]. Moreover, the “COX2 2 minutes pge2 area” value under setting [4] is given as 3.075.

As to `CS(=O)(=O)c1ccc(-n2ccc3ccc([C@@H](O)c4cccs4)nc32)cc1` (single isomer, unassigned) [Compound 209], the pIC50 was 5.87 under setting [1] and 5.84 under setting [2].

As for `CS(=O)(=O)c1ccc(-c2cc(NCc3ccoc3)ncn2)cc1` [Compound 239], the pIC50 under setting [1] was 5.56 and the pIC50 under setting [2] was 5.51.

As to `CS(=O)(=O)c1ccc(-n2ccc3ccc([C@H](O)c4cccs4)nc32)cc1` (single isomer, unassigned) [Compound 168], the pIC50 runs as follows: under setting [1], 6.36; under setting [2], 6.37.

As for `Cc1ncc(-c2ccc(S(C)(=O)=O)cc2)nc1NCc1cccs1` [Compound 145], the “COX2 2 minutes pge2/pge2d4 area ratio Avg. LLE” value under setting [3] is recorded as 4.321. Moreover, the pIC50 reads like this: under setting [1], 6.63; under setting [2], 6.66; under setting [6], 7.41. The “COX2 2 minutes pge2 area” value under setting [4] is given as 4.37. The “COX2 10 minutes pge2 area (counts) Avg. LLE” value (“COX2 10 minutes pge2 area” for short) under setting [5] is 5.186.

For `COc1cc(S(C)(=O)=O)ccc1-c1cccc(NCc2cccs2)n1` [Compound 259], the “COX2 2 minutes pge2/pge2d4 area ratio Avg. LLE” value under setting [3] is on record as 1.917. In addition, the pIC50 is, setting by setting: under setting [1], 5.38; under setting [2], 5.49. In addition, the “COX2 2 minutes pge2 area” value under setting [4] came to 2.088.

In the case of `CS(=O)(=O)c1ccc(-c2cncc(NCc3cncs3)n2)cc1` [Compound 201], the “COX2 2 minutes pge2/pge2d4 area ratio Avg. LLE” value under setting [3] was 4.51. The pIC50 runs as follows: under setting [1], 6.00; under setting [2], 6.08. The “COX2 2 minutes pge2 area” value under setting [4] is 4.612.

For the compound `CS(=O)(=O)c1ccc(Oc2cccc(NCc3cccs3)n2)cc1` [Compound 310], the pIC50 under setting [7] was 5.28.

For `NS(=O)(=O)c1ccc(-c2cncc(NCc3cccs3)n2)cc1` [Compound 106], the “COX2 2 minutes pge2/pge2d4 area ratio Avg. LLE” value under setting [3] is reported as 5.5926. Also, the pIC50 is, setting by setting: under setting [1], 7.04; under setting [2], 7.18. Further, the “COX2 2 minutes pge2 area” value under setting [4] is 5.699.

As to `CS(=O)(=O)c1ccc(-n2ccc3ncc(NCc4cccs4)nc32)cc1` [Compound 126], the “COX2 2 minutes pge2/pge2d4 area ratio Avg. LLE” value under setting [3] is on record as 3.568. Further, the pIC50 was 6.85 under setting [1] and 6.91 under setting [2]. Moreover, the “COX2 2 minutes pge2 area” value under setting [4] is recorded as 3.634.

For the compound `CS(=O)(=O)c1ccc(-c2cc(OCc3cccs3)ccn2)cc1` [Compound 315], under setting [7], the pIC50 was 5.28.

Consider `Cn1ccc(CNc2cncc(-c3ccc(S(C)(=O)=O)cc3)n2)n1` [Compound 245], for which the “COX2 2 minutes pge2/pge2d4 area ratio Avg. LLE” value under setting [3] stood at 4.632. Moreover, the pIC50 is 5.50 under setting [1] and 5.48 under setting [2]. Besides, the “COX2 2 minutes pge2 area” value under setting [4] is 4.621.

As for `CN1CCC(Nc2cncc(-c3ccc(S(C)(=O)=O)cc3)n2)CC1` [Compound 298], the pIC50 under setting [7] was 5.28.

Regarding `CO/N=C(/c1ccc2ccn(-c3ccc(S(C)(=O)=O)cc3)c2n1)c1cccs1` [Compound 214], the pIC50 by setting is: under setting [1], 5.82; under setting [2], 5.92.

As for `CS(=O)(=O)c1ccc(-c2cnc3ncn(Cc4cccs4)c3n2)cc1` [Compound 210], under setting [3], the “COX2 2 minutes pge2/pge2d4 area ratio Avg. LLE” value amounted to 2.8514. The pIC50 was 5.85 under setting [1], 5.93 under setting [2] and 6.95 under setting [6]. Also, the “COX2 2 minutes pge2 area” value under setting [4] is recorded as 2.964. Besides, the “COX2 10 minutes pge2 area” value under setting [5] was 3.939.

Consider `CS(=O)(=O)c1ccc(-c2cnc3cn(Cc4cccs4)nc3n2)cc1` [Compound 288], for which the “COX2 2 minutes pge2/pge2d4 area ratio Avg. LLE” value under setting [3] turned out to be 2.844. The “COX2 2 minutes pge2 area” value under setting [4] is recorded as 2.844. The pIC50 under setting [7] is 5.28.

Consider `CS(=O)(=O)c1ccc(-c2cncc(SCc3ccon3)n2)cc1` [Compound 148], for which the “COX2 2 minutes pge2/pge2d4 area ratio Avg. LLE” value under setting [3] came out at 5.484. The pIC50 reads like this: under setting [1], 6.57; under setting [2], 6.59. The “COX2 2 minutes pge2 area” value under setting [4] is on record as 5.518.

For `COc1ncc(NCc2cccs2)cc1-c1ccc(S(C)(=O)=O)cc1` [Compound 196], the “COX2 2 minutes pge2/pge2d4 area ratio Avg. LLE” value under setting [3] was 2.588. Also, the pIC50 is 6.05 under setting [1] and 5.99 under setting [2]. In addition, under setting [4], the “COX2 2 minutes pge2 area” value was found to be 2.528.

Take `CC(C)CNc1cncc(-c2ccc(S(C)(=O)=O)cc2)n1` [Compound 178]: the “COX2 2 minutes pge2/pge2d4 area ratio Avg. LLE” value under setting [3] was determined as 4.69. For the same compound, the pIC50 under setting [1] is 6.26, the pIC50 under setting [2] was 6.22 and the pIC50 under setting [6] is 6.92. The “COX2 2 minutes pge2 area” value under setting [4] was 4.636. Besides, under setting [5], the “COX2 10 minutes pge2 area” value was found to be 5.429.

On to `COc1cc(S(C)(=O)=O)ccc1-c1cncc(NCc2ccoc2)n1` [Compound 272], for which the “COX2 2 minutes pge2/pge2d4 area ratio Avg. LLE” value under setting [3] was 3.674. The “COX2 2 minutes pge2 area” value under setting [4] was found to be 3.674. Further, the pIC50 under setting [7] is 5.28.

In the case of `CS(=O)(=O)c1ccc(-c2nc(OCc3cccs3)cc3ncccc23)cc1` [Compound 140], the “COX2 2 minutes pge2/pge2d4 area ratio Avg. LLE” value under setting [3] was 2.8258. Besides, the pIC50 runs as follows: under setting [1], 6.67; under setting [2], 6.51. The “COX2 2 minutes pge2 area” value under setting [4] worked out at 2.75.
